Structures can show the parent of a compound that is named as a salt. Where two headings read alike, the source gives them in different places.
Target: T1, recombinant human MGAT2 enzyme (Homo sapiens, UniProt Q3SYC2)
T1 construct: made in house; host or cells: CHO-K1 (Jump-In CHO-K1 Kit, Life Technologies); microsomal fraction used as the enzyme solution
Test: Test for human MGAT2 activity inhibitory action (14C-oleoyl CoA, recombinant enzyme microsomes)
Type: biochemical
Set-up: key to Potency relative to Comparative Example 1 (higher = more potent): % inhibition = {1−(C−B)/(A−B)}×100, B = 10 μM Comparative Example 1
Settings: for IC50: read-out: IC50
Procedure: The human MGAT2 gene described in Am. J. Physiol. Endocrinol. Metab. 285: E927-E937, 2003 was expressed using Jump-In™ CHO-K1 Kit (Life technologies) as described in the attached manual. The cells were suspended in a buffer containing Tris-hydrochloric acid (pH 7.4) at a final concentration of 1 mM, 1 mM ethylenediaminetetraacetic acid, 1 mM dithiothreitol, 250 mM sucrose, and complete protease inhibitor cocktail (Roche applied Science), and then disrupted using a Teflon homogenizer (AS ONE Corporation), followed by centrifugation at 130 g for 10 minutes. The supernatant was further centrifuged at 100,000 g for 1 hour to obtain a pellet as microsomes containing the recombinant enzyme, and a solution obtained by suspending this pellet at a protein concentration of about 800 to 1900 μg/ml was used as an MGAT recombinant enzyme solution.
To a buffer containing 50 mM Tris-hydrochloric acid (pH 7.4), 6 mM magnesium chloride, and 2 mg/mL bovine serum albumin, a test compound was added, and the final concentration of dimethyl sulfoxide was adjusted to 0.3%. Moreover, 2-monooleoyl glycerol, oleoyl CoA, 1-^14C-oleoyl CoA (Perkin Elmer), and orlistat (SIGMA) were added at final concentrations of 50 μM, 50 μM, 2.2 μM, and 8.3 μM, respectively, followed by incubation at 37° C. for 10 minutes. After 10 minutes, the recombinant human MGAT2 enzyme solution was added at a final concentration of 0.67 μg/mL, and the reaction was started, with the amount of the reaction solution being 150 μl. The reaction was carried out at 37° C. for 30 minutes.
After 30 minutes, the reaction was stopped by adding 300 μl of isopropanol:heptane:water=(80:20:2) to the reaction liquid. Further, 200 μl of heptane and 100 μl of water were added, followed by stirring. Then, 100 μl of the upper layer was transferred to a 96-well plate (Corning), and mixed with 100 μl of liquid scintillator (LumaSafe Plus, Lumac). Then, the ^14C count was quantitatively determined using TopCount NXT™ microplate scintillation luminescence counter (Perkin Elmer).
The ^14C count in a case where no test compound was added was defined as A, the ^14C count in a case where 10 μM of the compound (Comparative Example 1) of Example No. 8 of WO2008/038768 was added was defined as B, and the ^14C count in the case where the test compound was added was taken as C. For this case, {1−(C−B)/(A−B)}×100(%) was calculated as the human MGAT2 activity inhibition ratio of the test compound (shown in the column named vs Comp. Ex. 1 in the following Table). A greater value of the “vs Comparative Example 1” means that the MGAT2 activity inhibitory action of the compound of Example was higher as compared to the MGAT2 activity inhibitory action of the compound of Comparative Example 1 (i.e., the human MGAT2 activity inhibition ratio was higher). […] Since this evaluation test was conducted for two separate groups, the test results of the two groups are shown separately in Table (First Test) and Table 4 (Second Test).
Next, the compounds of Examples 25 to 60 of the present invention were also investigated for their pharmacological action by using the same method as in Examples 1 to 24. […] Note that, a comparative evaluation test against the compound of Comparative Example 1 was conducted for each of the compounds of Examples (in every measurement of the inhibitory activity of the compounds of Examples 25 to 60, the inhibitory activity of the compound of Comparative Example 1 was measured). The 50% inhibition concentrations of Comparative Example 1 in the measurement of the inhibitory activities of the compounds of Examples 25 to 60 were shown in Table 5 as “IC50 (nM) of Comparative Example 1.”

[1] = First Test (Table 3), relative to Comparative Example 1, greater value = higher inhibitory action
[2] = Second Test (Table 4), relative to Comparative Example 1

T1 sequence (Q3SYC2 whole entry): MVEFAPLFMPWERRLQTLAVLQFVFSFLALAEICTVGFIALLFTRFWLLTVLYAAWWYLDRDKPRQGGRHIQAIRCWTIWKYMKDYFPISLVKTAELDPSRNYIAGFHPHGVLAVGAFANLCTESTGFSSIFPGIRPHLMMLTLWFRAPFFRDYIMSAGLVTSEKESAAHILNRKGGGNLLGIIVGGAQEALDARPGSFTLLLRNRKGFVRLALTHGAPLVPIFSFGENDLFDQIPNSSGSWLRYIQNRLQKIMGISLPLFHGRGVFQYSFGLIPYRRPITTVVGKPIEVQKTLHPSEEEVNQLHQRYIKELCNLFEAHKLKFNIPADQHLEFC

IC50 (First Test (Table 3)) [nM] | Potency relative to Comparative Example 1 (higher = more potent) [1] | IC50 (Second Test (Table 4)) [nM] | Potency relative to Comparative Example 1 (higher = more potent) [2] | Structure (SMILES)
4.1 | 54 | – | – | O=C(CNCc1ccc(C(F)(F)F)cc1)N1CCc2nc(SC3CCC3)n(-c3ccccc3)c(=O)c2C1 [Example 1, 2-cyclobutylsulfanyl-3-phenyl-6-[2-[[4-(trifluoromethyl)phenyl]methylamino]acetyl]-7,8-dihydro-5H-pyrido[4,3-d]pyrimidin-4-one trifluoroacetate]
1.3 | 171 | – | – | O=C(CNCCCc1ccccc1)N1CCc2nc(SC3CCC3)n(-c3ccccc3)c(=O)c2C1 [Example 2, 2-cyclobutylsulfanyl-3-phenyl-6-[2-(3-phenylpropylamino)acetyl]-7,8-dihydro-5H-pyrido[4,3-d]pyrimidin-4-one trifluoroacetate]
3.7 | 60 | – | – | O=C(CNCc1ccc(Cl)cc1)N1CCc2nc(SC3CCC3)n(-c3ccccc3)c(=O)c2C1 [Example 3, 6-[2-[(4-chlorophenyl)methylamino]acetyl]-2-cyclobutylsulfanyl-3-phenyl-7,8-dihydro-5H-pyrido[4,3-d]pyrimidin-4-one trifluoroacetate]
2.9 | 77 | – | – | O=C(CNCc1cccc(Cl)c1)N1CCc2nc(SC3CCC3)n(-c3ccccc3)c(=O)c2C1 [Example 4, 6-[2-[(3-chlorophenyl)methylamino]acetyl]-2-cyclobutylsulfanyl-3-phenyl-7,8-dihydro-5H-pyrido 4,3-[d]pyrimidin-4-one trifluoroacetate]
1.6 | 144 | – | – | O=C(CNCc1ccc(OCc2ccc(C(F)(F)F)cc2)cc1)N1CCc2nc(SC3CCC3)n(-c3ccccc3)c(=O)c2C1 [Example 6, 2-cyclobutylsulfanyl-3-phenyl-6-[2-[[4-[[4-(trifluoromethyl)phenyl]methoxy]phenyl]methylamino]acetyl]-7,8-dihydro-5H-pyrido[4,3-d]pyrimidin-4-one hydrate trifluoroacetate]
2.3 | 75 | – | – | O=C(CNCc1ccc(COc2ccccc2)cc1)N1CCc2nc(SC3CCC3)n(-c3ccccc3)c(=O)c2C1 [Example 7, 2-cyclobutylsulfanyl-6-[2-[[4-(phenoxymethyl)phenyl]methylamino]acetyl]-3-phenyl-7,8-dihydro-5H-pyrido[4,3-d]pyrimidin-4-one trifluoroacetate]
3.5 | 63 | – | – | O=C(CNCCc1ccccc1)N1CCc2nc(SC3CCC3)n(-c3ccccc3)c(=O)c2C1 [Example 8, 2-cyclobutylsulfanyl-6-[2-(phenylethylamino)acetyl]-3-phenyl-7,8-dihydro-5H-pyrido[4,3-d]pyrimidin-4-one trifluoroacetate]
3.9 | 57 | – | – | O=C(CNCCOc1ccc(F)c(F)c1)N1CCc2nc(SC3CCC3)n(-c3ccccc3)c(=O)c2C1 [Example 9, 2-cyclobutylsulfanyl-6-[2-[2-(3,4-difluorophenoxy)ethylamino]acetyl]-3-phenyl-7,8-dihydro-5H-pyrido[4,3-d]pyrimidin-4-one trifluoroacetate]
0.82 | 273 | – | – | O=C(CCNCc1ccccc1)N1CCc2nc(SC3CCC3)n(-c3ccccc3)c(=O)c2C1 [Example 10, 6-[3-(benzylamino)propanoyl]-2-cyclobutylsulfanyl-3-phenyl-7,8-dihydro-5H-pyrido[4,3-d]pyrimidin-4-one trifluoroacetate]
– | – | 1.8 | 166 | [2H]c1c([2H])c([2H])c(-n2c(SC3CCC3)nc3c(c2=O)CN(C(=O)CCNCc2ccccc2)CC3)c([2H])c1[2H] [Example 11, 6-[3-(benzylamino)propanoyl]-2-cyclobutylsulfanyl-3-(2,3,4,5,6-pentadeuteriophenyl)-7,8-dihydro-5H-pyrido[4,3-d]pyrimidin-4-one trifluoroacetate]
– | – | 1.4 | 216 | O=C(CCNCc1ccccc1)N1CCc2nc(SC3CCC3)n(CC3CCC3)c(=O)c2C1 [Example 12, 6-[3-(benzylamino)propanoyl]-3-(cyclobutylmethyl)-2-cyclobutylsulfanyl-7,8-dihydro-4H-pyrido[4,3-d]pyrimidin-4-one trifluoroacetate]
– | – | 6.9 | 44 | O=C(CCNCc1ccccc1)N1CCc2nc(SC3CCC3)n(C[C@H]3CCCO3)c(=O)c2C1 [Example 13, 6-[3-(benzylamino)propanoyl]-2-cyclobutylsulfanyl-3-[[(2R)-tetrahydrofuran-2-yl]methyl]-7,8-dihydro-5H-pyrido[4,3-d]pyrimidin-4-one trifluoroacetate]
– | – | 4.7 | 65 | O=C(CCNCc1ccccc1)N1CCc2nc(SC3CCC3)n(Cc3ccco3)c(=O)c2C1 [Example 14, 6-[3-(benzylamino)propanoyl]-2-cyclobutylsulfanyl-3-(2-furylmethyl)-7,8-dihydro-5H-pyrido[4,3-d]pyrimidin-4-one trifluoroacetate]
– | – | 2.4 | 129 | O=C(CCNCc1ccccc1)N1CCc2nc(SC3CCC3)n(C3CCCC3)c(=O)c2C1 [Example 15, 6-[3-(benzylamino)propanoyl]-2-cyclobutylsulfanyl-3-cyclopentyl-7,8-dihydro-5H-pyrido[4,3-d]pyrimidin-4-one trifluoroacetate]
– | – | 1.8 | 173 | O=C(CCNCc1ccsc1)N1CCc2nc(SC3CCC3)n(-c3ccccc3)c(=O)c2C1 [Example 16, 2-cyclobutylsulfanyl-3-phenyl-6-[3-(3-thienylmeethylamino)propanoyl]-7,8-dihydro-5H-pyrido[4,3-d]pyrimidin-4-one trifluoroacetate]
– | – | 2.1 | 148 | COc1ccccc1CNCCC(=O)N1CCc2nc(SC3CCC3)n(-c3ccccc3)c(=O)c2C1 [Example 17, 2-cyclobutylsulfanyl-6-[3-[(2-methoxyphenyl)methylamino]propanoyl]-3-phenyl-7,8-dihydro-5H-pyrido[4,3-d]pyrimidin-4-one trifluoroacetate]
– | – | 2.3 | 134 | O=C(CCNCc1ccccc1F)N1CCc2nc(SC3CCC3)n(-c3ccccc3)c(=O)c2C1 [Example 18, 2-cyclobutylsulfanyl-6-[3-[(2-fluorophenyl)methylammino]propanoyl]-3-phenyl-7,8-dihydro-5H-pyrido[4,3-d]pyrimidin-4-one trifluoroacetate]
– | – | 0.9 | 352 | O=C(CCNCc1ccc(C(F)(F)F)cc1)N1CCc2nc(SC3CCC3)n(-c3ccccc3)c(=O)c2C1 [Example 19, 2-cyclobutylsulfanyl-3-phenyl-6-[3-[[4-(trifluoromethyl)phenyl]methylamino]propanoyl]-7,8-dihydro-5H-pyrido[4,3-d]pyrimidin-4-one trifluoroacetate]
